Test results reported in patent US20250360183A1, “USE OF GMI FROM GANODERMA LUCIDUM SPORES IN THE PREPARATION OF PHARMACEUTICALS AND FOOD PRODUCTS” (Titan Biological & Agricultural Technology Co., Limited, priority 2024, published 2025).

Assays:
[1] = tested on: fibronectin, COL1A1, and α-SMA; assay: Western blot of fibrosis markers in TGF-β1-induced fibrotic LL29 cells; format: cell-based, human; conditions: LL29 cells stimulated with TGF-β1 5 ng/ml, normalized to α-tubulin
Protocol: In the in vitro experiments, cells were pre-treated with test compounds and subsequently stimulated with recombinant TGF-β1 to induce fibrotic processes. TGF-β1 plays a critical role in epithelial-mesenchymal transition (EMT), a key driver in the differentiation of fibroblasts into myofibroblasts. LL29 cells, derived from IPF patient lung fibroblasts, were obtained from ATCC®. Upon reaching 70% confluence, cells were pre-treated with selected concentrations of GMI in low-serum media for 2 hours, followed by exposure to 5 ng/ml of recombinant human TGF-β1 (R&D Systems, MN, USA) for 48 hours.
Cell lysates were prepared in RIPA buffer. […] Protein expression was quantified using Fiji software.
The present invention evaluated the expression levels of fibronectin, COL1A1, and alpha-smooth muscle actin (α-SMA), as these proteins are key markers associated with myofibroblasts and extracellular matrix (ECM) remodeling.
FIG. 3 (A) presents the results of Western blot analysis showing the expression of fibronectin, COL1A1, α-SMA, and the internal loading control α-tubulin. FIGS. 3 (B), (C) and (D) show the quantification of protein expression based on band intensity, represented as fold changes in the ratios of fibronectin/α-tubulin, COL1A1/α-tubulin, and α-SMA/α-tubulin, normalized to the untreated control (NT) group. […]

[2] = tested on: BLM-induced pulmonary fibrosis; assay: BLM-induced pulmonary fibrosis mouse model; format: in vivo, C57BL/6J mice; conditions: BLM 2.5 U/kg mice
Protocol: Four groups were intratracheally administered bleomycin (BLM; 2.5 U/kg) to induce pulmonary fibrosis, while one group served as a normal control. The treatment groups included: BLM-only, BLM+GMI (1 mg/kg), BLM+GMI (2 mg/kg), and BLM+PFD (200 mg/kg). All surviving animals were sacrificed on day 22.

In the case of Cc1ccc(=O)n(-c2ccccc2)c1 [PFD, pirfenidone], the “expression levels of fibronectin, COL1A1 and α-SMA” value [1] is reported as “failed to suppress the TGF-β1-induced upregulation”, the survival rate ([2]; PFD 200 mg/kg) is reported as 50% and the “lung appearance (gross examination, color)” value ([2]; compared to normal group) is reported as “color and appearance comparable to the normal group”.
